Laboratory results reported in patent US20110294766A1, “16 Alpha, 17 Alpha-Acetal Glucocorticosteroidal Derivatives and their Use” (AstraZeneca AB, priority 2008, published 2011).

biological target: T1, recombinant human GR (Homo sapiens, UniProt P04150); test: Human Glucocorticoid Receptor (GR) Assay (fluorescence polarization, Panvera/Invitrogen kit); settings: GS Red tracer, 2 hours at room temperature, 100% control 10 μM Dexamethasone, read-out: Inhibition of GR binding, IC50
T1 construct: purchased Panvera/Invitrogen P2812 (kit P2893)
T1 sequence (P04150 1-777): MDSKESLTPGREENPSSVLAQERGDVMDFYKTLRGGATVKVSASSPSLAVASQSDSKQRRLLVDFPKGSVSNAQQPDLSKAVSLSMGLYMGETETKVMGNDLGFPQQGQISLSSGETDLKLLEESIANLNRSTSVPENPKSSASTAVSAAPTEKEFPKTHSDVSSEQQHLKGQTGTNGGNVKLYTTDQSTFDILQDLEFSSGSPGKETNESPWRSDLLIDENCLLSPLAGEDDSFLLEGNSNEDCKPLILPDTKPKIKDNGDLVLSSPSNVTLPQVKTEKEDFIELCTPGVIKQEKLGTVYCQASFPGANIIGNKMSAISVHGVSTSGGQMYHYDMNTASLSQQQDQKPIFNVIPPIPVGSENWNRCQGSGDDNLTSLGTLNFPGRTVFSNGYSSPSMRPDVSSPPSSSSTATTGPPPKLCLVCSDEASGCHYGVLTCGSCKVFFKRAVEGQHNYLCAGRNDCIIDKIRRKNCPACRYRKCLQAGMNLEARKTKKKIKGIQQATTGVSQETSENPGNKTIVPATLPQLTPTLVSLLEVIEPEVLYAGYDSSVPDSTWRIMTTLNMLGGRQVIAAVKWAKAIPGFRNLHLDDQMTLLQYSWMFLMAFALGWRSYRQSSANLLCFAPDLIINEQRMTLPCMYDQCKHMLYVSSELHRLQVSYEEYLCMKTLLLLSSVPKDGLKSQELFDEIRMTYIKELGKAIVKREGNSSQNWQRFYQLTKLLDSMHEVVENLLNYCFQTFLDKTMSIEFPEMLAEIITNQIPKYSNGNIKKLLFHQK
Protocol: Human Glucocorticoid Receptor (GR) Assay The assay is based on a commercial kit from Panvera/Invitrogen (Part number P2893). The assay technology is fluorescence polarization. The kit utilises recombinant human GR (Panvera, Part number P2812), a Fluoromone™ labelled tracer (GS Red, Panvera, Part number P2894) and a Stabilizing Peptide 10× (Panvera, Part number P2815). The GR and Stabilizing Peptide reagents are stored at −70° C. while the GS Red is stored at −20° C. Also included in the kit are 1M DTT (Panvera, Part number P2325, stored at −20° C.) and GR Screening buffer 10× (Panvera, Part number P2814, stored at −70° C. initially but once thawed stored at room temperature). Avoid repeated freeze/thaws for all reagents. The GR Screening buffer 10× comprises 100 mM potassium phosphate, 200 mM sodium molybdate, 1 mM EDTA and 20% DMSO. Test compounds (1 μL) and controls (1 μL) in 100% DMSO were added to black polystyrene 384-well plates (Greiner low volume black flat-bottom, part number 784076). 0% control was 100% DMSO and 100% control was 10 μM Dexamethasone. Background solution (8 μL; assay buffer 10×, Stabilizing Peptide, DTT and ice cold MQ water) was added to the background wells. GS Red solution (7 μL; assay buffer 10×, Stabilizing Peptide, DTT, GS Red and ice cold water) was added to all wells except background wells. GR solution (7 μL; assay buffer 10×, Stabilizing Peptide, DTT, GR and ice cold water) was added to all wells. The plate was sealed and incubated in a dark at room temperature for 2 hours. The plate was read in an Analyst plate reader (LJL Biosystems/Molecular Devices Corporation) or other similar plate reader capable of recording fluorescence polarization (excitation wavelength 530 nm, emission wavelength 590 nm and a dichroic mirror at 561 nm).

SMILES | IC50 [nM]
C[C@]12C=CC(=O)C=C1[C@@H](F)C[C@H]1[C@@H]3C[C@H]4OC(c5ccc(Cl)cc5)O[C@@]4(C(=O)SCF)[C@@]3(C)C[C@H](O)[C@@]12F (stereo partly drawn) [Example 29, S-(Fluoromethyl)(4aS,4bR,5S,6aS,6bS,9aR,10aS,10bS,12S)-8-(4-chlorophenyl)-4b,12-difluoro-5-hydroxy-4a,6a-dimethyl-2-oxo-2,4a,4b,5,6,6a,9a,10,10a,10b,11,12-dodecahydro-6bH-naphtho[2′,1′:4,5]indeno[1,2-d][1,3]dioxole-6b-carbothioate] | 1.3
C[C@]12C=CC(=O)C=C1[C@@H](F)C[C@H]1[C@@H]3C[C@H]4OC(c5ccccc5)O[C@@]4(C(=O)SCF)[C@@]3(C)C[C@H](O)[C@@]12F (stereo partly drawn) [Example 30, S-(Fluoromethyl)(4aS,4bR,5S,6aS,6bS,9aR,10aS,10bS,12S)-4b,12-difluoro-5-hydroxy-4a,6a-dimethyl-2-oxo-8-phenyl-2,4a,4b,5,6,6a,9a,10,10a,10b,11,12-dodecahydro-6bH-naphtho[2′,1′:4,5]indeno[1,2-d][1,3]dioxole-6b-carbothioate] | 1.1
C[C@]12C=CC(=O)C=C1[C@@H](F)C[C@H]1[C@@H]3C[C@H]4O[C@@H](c5ccccc5)O[C@@]4(C(=O)SCC#N)[C@@]3(C)C[C@H](O)[C@@]12F [Example 31, S-(Cyanomethyl)(4aS,4bR,5S,6aS,6bS,9aR,10aS,10bS,12S)-4b,12-difluoro-5-hydroxy-4a,6a-dimethyl-2-oxo-8-phenyl-2,4a,4b,5,6,6a,9a,10,10a,10b,11,12-dodecahydro-6bH-naphtho[2′,1′:4,5]indeno[1,2-d][1,3]dioxole-6b-carbothioate] | 0.98
C[C@]12C=CC(=O)C=C1[C@@H](F)C[C@H]1[C@@H]3C[C@H]4OC(c5cccc6c5OCC6)O[C@@]4(C(=O)SCF)[C@@]3(C)C[C@H](O)[C@@]12F (stereo partly drawn) [Example 32, S-(Fluoromethyl)(4aS,4bR,5S,6aS,6bS,9aR,10aS,10bS,12S)-8-(2,3-dihydro-1-benzofuran-7-yl)-4b,12-difluoro-5-hydroxy-4a,6a-dimethyl-2-oxo-2,4a,4b,5,6,6a,9a,10,10a,10b,11,12-dodecahydro-6bH-naphtho[2′,1′:4,5]indeno[1,2-d][1,3]dioxole-6b-carbothioate] | 1
Cc1noc(C)c1C1O[C@@H]2C[C@H]3[C@@H]4C[C@H](F)C5=CC(=O)C=C[C@]5(C)[C@@]4(F)[C@@H](O)C[C@]3(C)[C@]2(C(=O)SCF)O1 (stereo partly drawn) [Example 33, S-(Fluoromethyl)(4aS,4bR,5S,6aS,6bS,9aR,10aS,10bS,12S)-8-(3,5-dimethylisoxazol-4-yl)-4b,12-difluoro-5-hydroxy-4a,6a-dimethyl-2-oxo-2,4a,4b,5,6,6a,9a,10,10a,10b,11,12-dodecahydro-6bH-naphtho[2′,1′:4,5]indeno[1,2-d][1,3]dioxole-6b-carbothioate] | 1
C[C@]12C=CC(=O)C=C1CC[C@@H]1[C@@H]2[C@@H](O)C[C@@]2(C)[C@H]1C[C@H]1OC(c3ccco3)O[C@]12C(=O)SCF (stereo partly drawn) [Example 34, S-(Fluoromethyl)(4aR,4bS,5S,6aS,6bS,9aR,10aS,10bS)-8-furan-2-yl-5-hydroxy-4a,6a-dimethyl-2-oxo-2,4a,4b,5,6,6a,9a,10,10a,10b,11,12-dodecahydro-6bH-naphtho[2′,1′:4,5]indeno[1,2-d][1,3]dioxole-6b-carbothioate] | 1
C[C@]12C=CC(=O)C=C1CC[C@@H]1[C@@H]2[C@@H](O)C[C@@]2(C)[C@H]1C[C@H]1O[C@@H](c3cccs3)O[C@]12C(=O)SCF [Example 35, S-(Fluoromethyl)(4aR,4bS,5S,6aS,6bS,8R,9aR,10aS,10bS)-5-hydroxy-4a,6a-dimethyl-2-oxo-8-thiophen-2-yl-2,4a,4b,5,6,6a,9a,10,10a,10,11,12-dodecahydro-6bH-naphtho[2′,1′:4,5]indeno[1,2-d][1,3]dioxole-6b-carbothioate] | 1.1
Cc1ccc(C2O[C@@H]3C[C@H]4[C@@H]5CCC6=CC(=O)C=C[C@]6(C)[C@H]5[C@@H](O)C[C@]4(C)[C@]3(C(=O)SCC#N)O2)c(C)c1 (stereo partly drawn) [Example 36, S-(Cyanomethyl)(4aR,4bS,5S,6aS,6bS,9aR,10aS,10bS)-8-(2,4-dimethylphenyl)-5-hydroxy-4a,6a-dimethyl-2-oxo-2,4a,4b,5,6,6a,9a,10,10a,10,11,12-dodecahydro-6bH-naphtho[2′,1′:4,5]indeno[1,2-d][1,3]dioxole-6b-carbothioate] | 2.7
COc1ccc(C2O[C@@H]3C[C@H]4[C@@H]5CCC6=CC(=O)C=C[C@]6(C)[C@H]5[C@@H](O)C[C@]4(C)[C@]3(C(=O)SCC#N)O2)c(F)c1 (stereo partly drawn) [Example 37, S-(Cyanomethyl)(4aR,4bS,5S,6aS,6bS,9aR,10aS,10bS)-8-(2-fluoro-4-methoxyphenyl)-5-hydroxy-4a,6a-dimethyl-2-oxo-2,4a,4b,5,6,6a,9a,10,10a,10b,11,12-dodecahydro-6bH-naphtho[2′,1′:4,5]indeno[1,2-d][1,3]dioxole-6b-carbothioate] | 1.4
COc1ccc([C@@H]2O[C@@H]3C[C@H]4[C@@H]5CCC6=CC(=O)C=C[C@]6(C)[C@H]5[C@@H](O)C[C@]4(C)[C@]3(C(=O)SC)O2)c(F)c1 [Example 38 (8R), S-Methyl (4aR,4bS,5S,6aS,6bS,8R,9aR,10aS,10bS)-8-(2-fluoro-4-methoxyphenyl)-5-hydroxy-4a,6a-dimethyl-2-oxo-2,4a,4b,5,6,6a,9a,10,10a,10b,11,12-dodecahydro-6bH-naphtho[2′,1′:4,5]indeno[1,2-d][1,3]dioxole-6b-carbothioate] | 2.2
C[C@]12C=CC(=O)C=C1CC[C@@H]1[C@@H]2[C@@H](O)C[C@@]2(C)[C@H]1C[C@H]1OC(c3ccc(C(F)(F)F)cc3)O[C@]12C(=O)SCC#N (stereo partly drawn) [Example 39, S-(Cyanomethyl)(4aR,4bS,5S,6aS,6bS,9aR,10aS,10bS)-5-hydroxy-4a,6a-dimethyl-2-oxo-8-[4-(trifluoromethyl)phenyl]-2,4a,4b,5,6,6a,9a,10,10a,10,11,12-dodecahydro-6bH-naphtho[2′,1′:4,5]indeno[1,2-d][1,3]dioxole-6b-carbothioate] | 2.8
C[C@]12C=CC(=O)C=C1CC[C@@H]1[C@@H]2[C@@H](O)C[C@@]2(C)[C@H]1C[C@H]1OC(c3ccc(C(F)(F)F)cc3)O[C@]12C(=O)SCF (stereo partly drawn) [Example 40, S-(Fluoromethyl)(4aR,4bS,5S,6aS,6bS,9aR,10aS,10bS)-5-hydroxy-4a,6a-dimethyl-2-oxo-8-[4-(trifluoromethyl)phenyl]-2,4a,4b,5,6,6a,9a,10,10a,10,11,12-dodecahydro-6bH-naphtho[2′,1′:4,5]indeno[1,2-d][1,3]dioxole-6b-carbothioate] | 1.7
CSC(=O)[C@@]12OC(c3ccc(C(F)(F)F)cc3)O[C@@H]1C[C@H]1[C@@H]3CCC4=CC(=O)C=C[C@]4(C)[C@H]3[C@@H](O)C[C@@]12C (stereo partly drawn) [Example 41, S-Methyl (4aR,4bS,5S,6aS,6bS,9aR,10aS,10bS)-5-hydroxy-4a,6a-dimethyl-2-oxo-8-[4-(trifluoromethyl)phenyl]-2,4a,4b,5,6,6a,9a,10,10a,10b,11,12-dodecahydro-6bH-naphtho[2′,1′:4,5]indeno[1,2-d][1,3]dioxole-6b-carbothioate] | 2.2
